Patent US7425580B2, “(Diaryl-methyl)-malononitriles and their use as estrogen receptor ligands” (Wyeth, priority 2004, dated 2008)

Assays:
NF-κB [1] = assay: NF-κB luciferase reporter in Ad5-wt-ER infected HAECT-1 cells (IL-1β stimulated); format: cell-based, human; details: for Emax: relative to maximal inhibition observed with E2, read-out: NF-κB Efficacy
Procedure: (§1) T-175 flasks of 100% confluent HAECT-1 cells (immortalized human aortic endothelial cells) were washed with 8 ml of HBSS (HEPES buffered saline solution) and infected for four hours with 6 ml of a 1:10 dilution of Ad5-wt-hERα virus (an adenovirus transfection vector that mediates CMV promoter driven expression of human ERα) in phenol red free Endothelial Cell Basal medium (Clonetics, San Diego Calif., Catalog # CC-3129) containing 0.25% bovine serum albumin (EBM-BSA). After four hours, cells were washed with EBM-BSA and incubated overnight in the same medium. Following overnight incubation, cells were washed with EBM-BSA and infected for 2 hours with 6 ml of a 1:10 dilution of Ad5-3×(NFKκB).Luc virus (Adenovirus luciferase expression vector driven by 3 repeats of the MHC NFκβ site 5′ to the thymidine kinase promoter) in EBM-BSA. After two hours, cells were washed and incubated at 34° C. for 1 hour. Cells were then washed, trypsinized, counted and resuspended in 95% FBS/5% dimethylsulfoxide at a concentration of 4×10^6 cells/ml, frozen as 1 or 5 ml aliquots in cryo-vials and stored at −150° C. Control (no ER infection) cells were processed as above without Ad5-wt-hERα virus infection.
(§2) ERα infected HAECT-1 cells or control cells were thawed, diluted 42× in warm EBM-BSA, plated into 96-well plates at 0.1 ml/well and incubated for 4 h at 34° C. Test compounds were added to the cells as 2× stocks in EBM-BSA containing 2 ng/ml IL-1β (R&D Systems) and plates were returned to the incubator (34° C.). After 15-20 h, 100 μl aliquots of media were removed from the cells and assayed for IL-6 content using a BioSource human IL-6 ELISA Kit. Cells were subsequently washed with 300 μl of Dulbecco's phosphate buffered saline and lysed in 50 μl of Cell Culture Lysis Reagent (Promega). Luciferase was determined on a Wallac Victor^2 Luminometer (Gaithersburg, Md.) using 10 μl of lysate and mixing with 100 μl of Promega Luciferase Assay reagent. Creatine kinase was determined from the rate of increase in A340 following addition of 100 μl of CK assay reagent (Sigma, cat. No 47-10) to the remainder of the cell lysate.
(§3) For IC50 and EC50 calculations, mean IL-6, luciferase or CK values versus log10 of the compound concentration were fitted to a four parameter logistic equation. The IC50/EC50 value, ‘Hill slope’, upper and lower limits of the curve were iteratively estimated.

IL-6 = IL-6 expression (ELISA) in Ad5-wt-ER infected HAECT-1 cells (IL-1β stimulated); format: cell-based, human; details: for IL-6 Efficacy: relative to maximal inhibition observed with E2
Procedure: as §1, §2, §3

creatine kinase = assay: Creatine kinase expression in Ad5-wt-ER infected HAECT-1 cells; format: cell-based, human; details: for IC50: Homo sapiens, HAECT1, stimulation of CK; for CK Efficacy: relative to maximal stimulation observed with E2
Procedure: as §1, §2, §3

NF-κB [2] = assay: NF-κB luciferase reporter in non ER infected HAECT-1 cells; format: cell-based, human
Procedure: T-175 flasks of 100% confluent HAECT-1 cells (immortalized human aortic endothelial cells) were washed with 8 ml of HBSS (HEPES buffered saline solution) and infected for four hours with 6 ml of a 1:10 dilution of Ad5-wt-hERα virus (an adenovirus transfection vector that mediates CMV promoter driven expression of human ERα) in phenol red free Endothelial Cell Basal medium (Clonetics, San Diego Calif., Catalog # CC-3129) containing 0.25% bovine serum albumin (EBM-BSA). After four hours, cells were washed with EBM-BSA and incubated overnight in the same medium. […] Cells were then washed, trypsinized, counted and resuspended in 95% FBS/5% dimethylsulfoxide at a concentration of 4×10^6 cells/ml, frozen as 1 or 5 ml aliquots in cryo-vials and stored at −150° C. […]
ERα infected HAECT-1 cells or control cells were thawed, diluted 42× in warm EBM-BSA, plated into 96-well plates at 0.1 ml/well and incubated for 4 h at 34° C. […] Luciferase was determined on a Wallac Victor^2 Luminometer (Gaithersburg, Md.) using 10 μl of lysate and mixing with 100 μl of Promega Luciferase Assay reagent. Creatine kinase was determined from the rate of increase in A340 following addition of 100 μl of CK assay reagent (Sigma, cat. No 47-10) to the remainder of the cell lysate. […]

uterine wet weight = assay: Uterine wet weight increase in ovariectomized C57BL/6 mice; format: in vivo; details: EE 0.01 mg/kg/day, test compound 10 mg/kg/day, gavage, 5 weeks; for Uterine Wet Weight Increase, Fold Increase: compared to vehicle control
Procedure: Ovariectomized C57BL/6 mice (16-20 g) (Taconic) were separated into groups of 8. After 5-7 days of recuperation, the mice were fed a chow diet or an atherogenic diet (15.75% fat, 1.25% cholesterol and 0.5% sodium cholate) (Purina diet #21539). EE or test compound was administered once daily by gavage in a methylcellulose/tween vehicle (0.1 ml per mouse) for 5 weeks. At the end of the experimental period, the liver was collected and uterine wet weight was recorded. To determine the ability of estrogens to regulate the development of diet-induced inflammation in the liver, gene expression changes resulting from the atherogenic diet were monitored. Ovariectomized C57BL/6 mice were fed either a chow or atherogenic diet and treated daily with EE (0.01 mg/kg) or test compound (10 mg/kg) (Table 3).

[3] = system: NF-κB target genes (MHC invariant chain, VCAM-1, RANTES, TNF-α mRNA); assay: Liver inflammatory gene expression (real time RT-PCR) in ovariectomized C57BL/6 mice on atherogenic diet; format: in vivo; details: EE 0.01 mg/kg daily
Procedure: Ovariectomized C57BL/6 mice (16-20 g) (Taconic) were separated into groups of 8. After 5-7 days of recuperation, the mice were fed a chow diet or an atherogenic diet (15.75% fat, 1.25% cholesterol and 0.5% sodium cholate) (Purina diet #21539). EE or test compound was administered once daily by gavage in a methylcellulose/tween vehicle (0.1 ml per mouse) for 5 weeks. At the end of the experimental period, the liver was collected and uterine wet weight was recorded.
Liver total RNA was prepared by using Trizol reagent (BRL). Estrogen and compound regulation of NF-κB target genes were verified by real time RT-PCR using an ABI PRISM 7700 Sequence Detection System according to the manufacturer's protocol (Applied Biosystems). The data was analyzed using the Sequence Detector v1.7 software (Applied Biosystems) and normalized to GAPDH using the Applied Biosystems primer set.
To determine the ability of estrogens to regulate the development of diet-induced inflammation in the liver, gene expression changes resulting from the atherogenic diet were monitored. Ovariectomized C57BL/6 mice were fed either a chow or atherogenic diet and treated daily with EE (0.01 mg/kg) or test compound (10 mg/kg) (Table 3).

[4] = Ad5-wt-ER infected HAECT-1 cells
[5] = Homo sapiens, HAECT1, Ad5-wt-ER infected HAECT-1 cells

IC50 (NF-κB [1]; [5])	IC50 (IL-6; [5])	IC50 (creatine kinase)	SMILES	Emax (NF-κB [1]; [5])	IL-6 Efficacy (IL-6; [4])	CK Efficacy (creatine kinase)	also measured
9.9 nM	24 nM	30.7 nM	COc1ccccc1C(c1cccc2ccccc12)C(C)(C#N)C#N (stereo not drawn) [Ex. 7, 2-[(2-Methoxyphenyl)(1-naphthyl)methyl]-2-methylmalononitrile]	98%	144%	28%	IC50 (NF-κB [1]; [4]): 17.5 nM; NF-κB IC50 (NF-κB [2]): inactive; Uterine Wet Weight Increase, Efficacy (uterine wet weight): 18%; Uterine Wet Weight Increase, Fold Increase (uterine wet weight): 2.2; melting point: 175 to 177 °C
1640 nM	–	–	COc1ccc(C(c2cccc3ccccc23)C(C#N)C#N)cc1 (stereo not drawn) [Ex. 6, 2-[(4-Methoxyphenyl)(1-naphthyl)methyl]malononitrile]	137%	–	–	–
768 nM	560 nM	–	N#CC(C#N)C(c1cccc2ccccc12)c1cccc2ccccc12 [Ex. 8, 2-[Di(1-naphthyl)methyl]malononitrile]	176%	152%	–	IC50 (NF-κB [1]; [4]): 581 nM; melting point: 179 to 181 °C
–	–	–	C#C[C@]1(O)CC[C@H]2[C@@H]3CCc4cc(O)ccc4[C@H]3CC[C@@]21C [EE, 17α-ethinyl-17β-estradiol, reference compound]	–	–	–	Uterine Wet Weight Increase, Efficacy (uterine wet weight): 100%; Uterine Wet Weight Increase, Fold Increase (uterine wet weight): 5.0; Atherogenic diet induction of mRNA for MHC invariant chain, VCAM-1, RANTES and TNF-α in liver [3]: strongly suppressed
853 nM	1040 nM	–	COc1cccc(C(c2cccc3ccccc23)C(C#N)C#N)c1 (stereo not drawn) [Ex. 3, 2-[(3-Methoxyphenyl)(1-naphthyl)methyl]malononitrile]	138%	92%	–	–
1660 nM	–	–	Cc1ccc(C(c2cccc3ccccc23)C(C#N)C#N)cc1 (stereo not drawn) [Ex. 5, 2-[(4-Methylphenyl)(1-naphthyl)methyl]malononitrile]	154%	–	–	–
–	1010 nM	–	Cc1ccccc1C(c1cccc2ccccc12)C(C#N)C#N (stereo not drawn) [Ex. 4, 2-[(2-Methylphenyl)(1-naphthyl)methyl]malononitrile]	–	127%	–	–
–	–	5.8 nM	C[C@]12CC[C@@H]3c4ccc(O)cc4CC[C@H]3[C@@H]1CC[C@@H]2O [Example E2, 17β-estradiol, reference compound]	–	100%	100%	IC50 (IL-6; [4]): 1.7 nM
–	1220 nM	8.7 nM	COc1ccccc1C(c1cccc2ccccc12)C(C#N)C#N (stereo not drawn) [Ex. 1, 2-[(2-Methoxyphenyl)(1-naphthyl)methyl]malononitrile]	–	118%	27%	NF-κB IC50 (NF-κB [2]): inactive
